According to patent publication EP0042354A2, “Imidazobenzothiadiazepines, process for their preparation and pharmaceutical compositions containing them” (CIBA-GEIGY AG, priority 1980, dated 1981):

Tests used:
Format in all cases: in vivo
[1] = system: Ratten; assay: Sidman avoidance test (conditioned avoidance, lever press to postpone foot shock), rats; details: Rattus norvegicus, compound given 30, 90 and 210 min before the test, total dose, read-out: Gesamtdosis, welche die Vermeidungs-Reaktionen vermindert
Text: (§1) Die Verbindungen der Erfindung zeigen wertvolle pharmakologische Eigenschaften, in erster Linie neuroleptische Wirkungen. Diese können in Tierversuchen, vorzugsweise an Säugern, z.B. Mäusen, Ratten oder Affen, als Testobjekte, nachgewiesen werden. Die genannten Verbindungen können ihnen enteral oder parenteral, vorzugsweise oral oder subkutan, intravenös oder intraperitoneal, z.B. durch Steckkapseln oder in Form von Stärke enthaltenden Suspensionen bzw. wässerigen Lösungen, verabreicht werden. Die verwendete Dosis kann in einem Bereich von ungefähr zwischen 0,01 und 100 mg/kg/Tag, vorzugsweise ungefähr 0,05 und 10 mg/kg/Tag, insbesonder zwischen 0,1 und 5 mg/kg/Tag, liegen.
(§2) Die genannten neuroleptischen Eigenschaften können an ausgewachsenen Ratten oder Totenkopf-Aeffchen (squirrel monkeys) nachgewiesen werden. Die Tiere sind zur Betätigung eines Hebels trainiert, wodurch sie einem auf den Fuss verabreichten elektrischen Schock ausweichen können. Jeder Hebeldruck verschiebt den Schock um 30 Sekunden. Vergisst das Tier den Hebel innerhalb des genannten Zeitintervalls einmal zu drücken, so werden alle 15 Sekunden kurze (0,5 sec.) elektrische Schocks abgegeben, bis das Tier den Hebel wieder betätigt. […]

[2] = system: Totenkopf-Aeffchen; assay: Extrapyramidal side effects and neurological symptoms observed in haloperidol-sensitised squirrel monkeys
Text: Die bei den klassischen Neuroleptica bekannten extrapyramidalen Nebenwirkungen (ENW) lösen in Totenkopf-Aeffchen, welche vorher einer wiederholten antipsychotischen Behandlung unterworfen waren, charakteristische motorische Syndrome aus. Diese Bewegungsstörungen bestehen aus dystonischen Kõrperhaltungen und dyskinetischen Bewegungen, welche besser den bei Menschen auftretenden ENW entsprechen, als dies die Katalepsie oder Zittern tut. So können potentielle extrapyramidale Nebenwirkungen, aber gegebenenfalls auch andere neurologische Symptome, z.B. Ptosis, durch Beobachtung von ausgewachsenen Totenkopf-Aeffchen (von einem Gewicht von 700-1200 g) beurteilt werden. Die Tiere werden einmal wöchentlich oder einmal in zwei Wochen mit Haloperidol (1,25 mg/kg) behandelt. Nach einer derartigen Behandlung von ungefähr 2-4 Monaten treten 1-6 Stunden nach der Verabreichung von Haloperidol offensichtliche dystonische Körperhaltungen und dyskinetische Bewegungen auf. Sonst können in anderen Zeitpunkten keine abnormalen Bewegungen der Affen festgestellt werden. Nach dem Auftreten von, durch Haloperidol hervorgerufenen Dyskinesien, wird die oben geschilderte Behandlungsweise abgebrochen. Die Tiere erhalten nachher lediglich alle 4-8 Wochen 1,25 mg/kg Haloperidol und sie werden als Kontrolltiere bei der Untersuchung von Verbindungen dieser Erfindung eingesetzt.
Die Affen werden in Intervallen von 2, 4 und 6 Stunden nach der Behandlung beurteilt. Die Versuche werden in verschlossenen Zellen, welche mit ferngesteuerten Video-Beobachtungsapparaten und mit einem einheitlichen Summton-Generator ausgerüstet sind, durchgeführt. Die Beurteilungen der Tiere werden durch zwei voneinander unabhängige Beobachter vorgenommen, welche keine Kenntnis von den verabreichten Verbindungen und vom Ziel des Versuchs haben. Während der neurologischen Untersuchungen werden die Affen von einer dritten Person behandelt. Zuerst werden die Tiere durch das Video-System beobachtet. Dann betreten die Beobachter die Versuchstelle und notieren die Reaktionen der Affen als "motorisch" (das Tier geht umher in der Zelle), "visuell" (eine offenbare Reaktion, jedoch kein Umhergehen) und "keine" (keine Reaktion). Es werden auch Aktivität, Köperhaltung, Zittern, vermehrter Speichelfluss und andere neurologische Symptome berücksichtigt. Besondere Beachtung wird dem Vorhandensein oder Abwesenheit von "bizarren", vorher genannten, distonischen Körperhaltungen und dyskinetischen Bewegungen gewidmet. Die die Tiere behandelnde Person nimmt dann den Affen aus der Zelle heraus. Dabei werden die Reaktionen des Affen auf die Annäherung der mit einem Handschuh geschützten Hand, auf die erste Berührung beim Anfassen undauf die Hemmnisse nach der Gefangennahme, separat aufgeschrieben. Die Vokalisation während der Gefangennahme wird auch beurtielt. Die Person, welche das Tier behandelt, wertet dann den Körpertonus und die Pupillengrösse aus und stellt fest, ob Ptosis vorhanden ist. Hat die vorhergehende Untersuchung nahegelegt, dass Katalepsie aufgetreten ist, so wird dieses Symptom ausgewertet. Der Affe wird zuerst, Kopf nach unten, auf den Boden, dann zum Zelleneingang und schliesslich in die Beobachtungszelle gestellt. Bleibt der Affe in allen diesen Stellungen mindestens 5 Sekunden im wesentlichen unbeweglich, so wird das Vorhandensein der Katalepsie bejaht. […]

[3] = system: Totenkopf-Aeffchen (squirrel monkeys); assay: Sidman avoidance test (conditioned avoidance, lever press to postpone foot shock), monkeys; details: Saimiri, in Primates, compound given 30, 90 and 210 min before the test, total dose, read-out: Gesamtdosis, welche die Vermeidungs-Reaktionen vermindert
Text: as §1, §2

For `CN1CCN(C2=Nc3ccccc3Sc3nccn32)CC1` [Beispiel 1, 5-(4-Methylpiperazino)-imidazo[2,1-b][1,3,5]benzothia-diazepin], the minimal effective dose [1] was at most 10 mg/kg, the “vermehrter Speichelfluss” value ([2]; in vivo) was “nicht festellbar” and the minimal effective dose [3] was at most 10 mg/kg.
In the case of `CN1CCN(C2=Nc3cc(Cl)ccc3Nc3ccccc32)CC1` [Clozapin], the “dyskinetische Bewegungen / Dyskinesien” value ([2]; 10 mg/kg, monkeys rated 2, 4 and 6 h after treatment) is reported as “nicht aufgetreten” and the “vermehrter Speichelfluss” value ([2]; monkeys rated 2, 4 and 6 h after treatment, doses as in the dyskinesia test) is reported as “bei jedem untersuchten Affen”.
In the case of `O=C(CCCN1CCC(O)(c2ccc(Cl)cc2)CC1)c1ccc(F)cc1` [Haloperidol], the “dyskinetische Bewegungen / Dyskinesien” value ([2]; 0,625 mg/kg (low dose), monkeys rated 2, 4 and 6 h after treatment) is reported as “an fünf Affen feststellbar” and the “dyskinetische Bewegungen / Dyskinesien” value ([2]; 1,25 mg/kg, monkeys rated 2, 4 and 6 h after treatment) is reported as “schwere Dyskinesie”.
